Here are results for one molecule from patent publication US4871758A, “Pharmacologically active cholinergic compositions, and methods for making same and use thereof in treating disease” (priority 1987, dated 1989).

Structures can show the parent of a compound that is named as a salt.

Experiment [1] has as its system M1 receptors on the intramural inhibitory neurons. The experiment in a line: lower esophageal sphincter pressure assay in anaesthetized opossum. Format: in vivo. As for the experimental part: The compound (I) obtained according to Example 2 was tested by assay on the lower esophageal sphincter of an opossum anaesthetized with sodium phenobarbitol. In carrying out the assay, the lower esophageal sphincter located between the esophagus and the stomach remains in a state of tonic contraction; therefore, a pressure sensing (manometric) catheter introduced from the animal's mouth into the lumen monitors lower esophageal sphincter pressures by registering a sustained high pressure zone, due to the lumen's myogenic contraction which is independent of neural or hormonal influences. Neural activity and hormones can increase or decrease the sphincter pressure and both excitatory and inhibitory influences can be readily detected.
The intraluminal pressures from the lower esophageal sphincter, esophageal body and the stomach are continuously monitored using a low compliance, waterfilled and continuously perfused catheter anchored in the lower esophageal sphincter so that artifacts due to axial motion can be minimized. See Goyal et al., Gastroenterology, 71, 62-7 (1976). All animals receive bilateral cervical vagotomy to eliminate vagally mediated changes in the sphincter pressure. Nerves to the sphincter are stimulated electrically by electrodes which are either applied to the distal end of the cut vagus nerve or applied intramurally in the sphincter. See Goyal et al., supra, and Rattan et al., Am. J. Physiol., 234, E272-E276 (1978). Reflex relaxation of the sphincter is produced by distension of the esophagus with an intraluminal balloon. Drugs are administered in the arterial supply of the lower esophageal sphincter. This is done by opening the abdominal cavity and cannulating the artery that leads to the lower esophageal sphincter. The compound is injected into the blood supply of the lower esophageal sphincter and its effect therein is determined. The animal's vital signs are monitored and blood pressure is maintained with intravenous infusion of saline. Some drugs are administered intravenously.
In summary, the above-described model permits identification of muscarinic agonists and antagonists in a physiological system.

The subject of experiment [2] is guinea-pig trachea muscle. The experiment in a line: guinea-pig trachea contraction. The settings on record: muscles have essentially M2 receptors.
[3] abbreviates: lower esophageal sphincter, anaesthetized opossum.

As to `Cc1ccc(-c2cncn2C)o1` [Compound I, 1-(N-methyl)-5-(5'-methyl-2'-furyl)imidazole, Hydrochloride], the M1 receptor selectivity result in experiment [1] (M1 versus M2, from sphincter and trachea results) is “highly selective for M1 receptors”. Moreover, in experiment [1] (atropine), the “blockade of activity by antagonist” value is given as “blocked by atropine”. Also, in experiment [1] (inferred from 80% of full agonist activity), the agonist type result is “partial agonist”. In experiment [1] (setting [3]), the “dosage giving peak effect” value is listed as 10^-6 mole/kg and the threshold dosage is 10^-8 mole/kg. The “muscarinic receptor subtype effects” value in experiment [1] (lower esophageal sphincter, anaesthetized opossum, injected into arterial supply of the sphincter) was “only M1 effects”. Moreover, the “potency in contracting the trachea muscle” value in experiment [2] is listed as “virtually no potency”.
